According to patent US7144889B2, “Triarylimidazoles” (Hoffman-La Roche Inc., priority 2003, dated 2006):

biological target: T1, c-met (Homo sapiens, UniProt P08581); assay: C-met Autoactivation Kinase Assay (AKA), ELISA type assay on HT29 cell lysate; type: biochemical; conditions: phosphorylation of c-met from HT29 lysate, 40 μM ATP
T1 construct: endogenous in cells; host or cells: HT29 (ATCC HTB-38), human colon adenocarcinoma
From the text: C-met Autoactivation Kinase Assay (AKA)
C-met is a typical tyrosine kinase which is involved in metastasis, proliferation/apoptosis and angiogenesis of tumors. The assay is an ELISA type assay measuring the phosphorylation of c-met using a phospho-tyrosine specific antibody.
Cell lysate of human colon adenocarcinoma HT29 known for its high content of c-met is bound to the wells of a microtiterplate (MTP) via an anti-hHGF receptor antibody (anti-hHGFR). ATP-phosphorylation of c-met is detected in presence or absence of the test compounds by using a phospho-tyrosine mouse IgG and a POD labeled goat anti-mouse IgG detection system. Using the classical POD substrate TMB, an absorption at 450 nm/620 nm is used to calculate enzymatic activity.
Plates: 96-well polystyrene plates (NUNC) streptavidin-coated microtiter plates Cell line/Lysate: HT29 (ATCC HTB-38), human colon adenocarcinoma (confluence: 2.5×10^5 cells/cm^2) are washed with PBS and incubated with Lysis buffer for 10 min on ice. Supernatent is collected and diluted with TBS. Lysate is shockfrozen in liquid nitrogen and stored at −80° C.)
Reagents (all working solutions are kept at 4° C., unless stated otherwise): • anti-hHGFR detection stock solution: 50 μg/ml (R&D Systems, Cat.No. BAF 358) antibody final conc.: 1 μg/ml • p-Tyr (PY99) mouse stock solution: 200 μg/ml (Santa Cruz Biotechnology, monoclonal IgG2b Cat.No. SC-7020) final conc.: 0.2 μg/ml • goat-anti-mouse IgG: 2 ml (BIO RAD, Cat.No. 170–6516) • (H+L)-HRP Conjugate; final conc.: 1:2000 • Blocking Reagent: Roche Diagnostics GmbH, Cat.No.1 112589 for ELISA diluted 1:10 in TBS • ATP: Adenosine-5′-triphosphate, stock solution 10 mM, stock solution 10 mM (Roche Diagnostics GmbH, Cat.No. 127531) final conc.: 40 μM • TBS: Tris-buffered saline, 50 mM TRIS pH 7.5 (Roche Diagnostics GmbH, Cat.No. 708976), 150 mM NaCl (SIGMA, Cat.No. S-3014) • Wash buffer TBS-T: Tris-buffered saline, 50 mM TRIS pH 7.5 150 mM NaCl, containing 0.5% Tween20 • Kinase buffer: Tris-buffered saline, 50 mM TRIS pH 7.5, 100 mM NaCl, 60 mM MgCl2 (SIGMA Chemical Company, Cat.No. M-1028) • Lysis buffer: 50 mM TRIS pH 7.5 containing 1% Nonidet P40 (Roche Diagnostics GmbH, Cat.No.1754599) 0.5 % Deoxycholic acid (SIGMA Chemical Company, Cat.No. D-6750) final conc.: 1 mM 1 mM PMSF stock solution 70 mM (Roche Diagnostics GmbH, Cat.No.837091 40 μl/ml Complete (Roche Diagnostics GmbH, Cat.No. 1836145) Final conc.: 40 μ/ml • TMB: Tetramethylbenzidine (Intergen Company, Cat.No. 91000) • Samples: 10 mM in DMSO (stored at −20° C.), thawed at room temperature Procedure: […]

T1 sequence (P08581 25-1390): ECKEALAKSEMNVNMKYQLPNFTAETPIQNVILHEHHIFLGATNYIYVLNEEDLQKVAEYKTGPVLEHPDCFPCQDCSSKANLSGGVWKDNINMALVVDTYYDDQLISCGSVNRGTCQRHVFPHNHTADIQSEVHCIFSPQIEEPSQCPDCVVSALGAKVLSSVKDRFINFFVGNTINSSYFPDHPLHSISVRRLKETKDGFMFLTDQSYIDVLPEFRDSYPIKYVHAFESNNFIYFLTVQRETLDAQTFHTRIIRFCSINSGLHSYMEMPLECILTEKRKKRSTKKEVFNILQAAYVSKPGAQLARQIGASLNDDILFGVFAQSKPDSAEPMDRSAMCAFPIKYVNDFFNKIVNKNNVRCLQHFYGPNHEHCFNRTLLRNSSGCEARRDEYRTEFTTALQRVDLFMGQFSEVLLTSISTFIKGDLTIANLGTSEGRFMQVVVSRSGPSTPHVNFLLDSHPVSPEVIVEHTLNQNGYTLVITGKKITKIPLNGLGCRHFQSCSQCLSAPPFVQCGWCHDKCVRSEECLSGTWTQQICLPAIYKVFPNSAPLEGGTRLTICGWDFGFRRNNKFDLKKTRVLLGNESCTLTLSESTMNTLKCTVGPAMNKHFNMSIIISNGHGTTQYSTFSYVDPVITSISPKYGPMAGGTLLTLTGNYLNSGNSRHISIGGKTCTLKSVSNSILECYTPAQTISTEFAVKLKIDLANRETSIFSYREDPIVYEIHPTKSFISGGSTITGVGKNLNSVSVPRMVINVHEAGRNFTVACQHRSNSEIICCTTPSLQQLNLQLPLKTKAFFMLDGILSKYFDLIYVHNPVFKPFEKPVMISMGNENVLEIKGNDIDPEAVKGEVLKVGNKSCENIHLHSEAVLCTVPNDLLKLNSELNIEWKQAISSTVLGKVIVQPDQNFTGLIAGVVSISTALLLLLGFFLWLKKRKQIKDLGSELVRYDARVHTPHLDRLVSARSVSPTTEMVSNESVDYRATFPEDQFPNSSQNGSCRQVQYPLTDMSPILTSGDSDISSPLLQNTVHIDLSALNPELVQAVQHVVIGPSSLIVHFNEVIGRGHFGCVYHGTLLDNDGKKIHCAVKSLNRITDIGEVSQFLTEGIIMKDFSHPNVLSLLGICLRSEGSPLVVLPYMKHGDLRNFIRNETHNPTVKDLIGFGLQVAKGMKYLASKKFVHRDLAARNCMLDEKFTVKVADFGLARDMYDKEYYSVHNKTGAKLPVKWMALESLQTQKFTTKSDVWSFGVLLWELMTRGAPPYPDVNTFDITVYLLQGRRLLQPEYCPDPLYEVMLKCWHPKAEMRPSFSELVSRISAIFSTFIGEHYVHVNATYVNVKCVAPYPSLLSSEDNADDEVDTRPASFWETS

In order of falling IC50:
1. OCCCNc1nccc(-c2[nH]c(-c3c(Cl)cc(OCCO)cc3Cl)nc2-c2cccc(OCc3ccncc3)c2)n1 [Example H3, 2-(2,6-dichloro-4-[2-hydroxyethoxy]phenyl)-4-(3-(4-pyridinylmethyloxy)phenyl)-5-(2-[3-hydroxypropylamino]pyrimidin-4-yl)-N-1H-imidazole]  54 nM
2. OCCCNc1nccc(-c2[nH]c(-c3c(Cl)cc(OCCO)cc3Cl)nc2-c2cccc(OCc3cccnc3)c2)n1 [Example H2, 2-(2,6-dichloro-4-[2-hydroxyethoxy]phenyl)-4-(3-(3-pyridinylmethyloxy)phenyl)-5-(2-[3-hydroxypropylamino]pyrimidin-4-yl)-N-1H-imidazole]  32 nM
3. OCCCNc1nccc(-c2[nH]c(-c3c(Cl)cncc3Cl)nc2-c2cccc(OCc3ccccc3)c2)n1 [Example H4, 2-(3,5-dichloropyridin-4-yl)-4-(3-benzyloxyphenyl)-5-(2-[3-hydroxypropyl-amino]pyrimidin-4-yl)-N-1H-imidazole]  23 nM
4. OCCCNc1nccc(-c2[nH]c(-c3c(Cl)cc(OCCO)cc3Cl)nc2-c2cccc(OCc3ccccn3)c2)n1 [Example H1, 2-(2,6-dichloro-4-[2-hydroxyethoxy]phenyl)-4-(3-(2-pyridinylmethyloxy)phenyl)-5-(2-[3-hydroxypropylamino]pyrimidin-4-yl)-N-1H-imidazole]  22 nM
